Values of other authors in US6818658B2, “Acylated piperidine derivatives as melanocortin-4 receptor agonists” (Merck & Co., Inc., priority 2001, dated 2004).

How the values were obtained:
[1] = patients
[2] = injected intramuscularly or subcutaneously, males with psychogenic erectile dysfunction

Row | Molecule | duration of effect [1] | onset of action ([1]; for sildenafil after an oral dose) | response rate [2]
1 | Cc1ccc(N(CC2=NCCN2)c2cccc(O)c2)cc1 [phentolamine] | 2 h | 5 to 30 min | –
2 | Ac-Nle-c[Asp-His-DPhe-Arg-Trp-Lys]-NH2 [MT-II] | – | – | 75%
